From PubChem BioAssay AID504551 (Southern Research Specialized Biocontainment Screening …, 2011) come the findings set out here.

For this assay, the system named is MAGI-CCR5/HeLa-R5-16 cell fusion, beta-gal luminescence. Briefly: inhibitors of CCR5-tropic HIV-1 Env cell-cell fusion, dose response, MAGI-CCR5 and HeLa-R5-16 cells, 2% serum, set 2 (AID 504551).

By IC50 is commonly meant the concentration that inhibits the measured activity by half. Regarding `COc1ccccc1Cn1c(O)cc2nn(-c3nc4ccccc4s3)c(=O)c-2c1C`, the IC50 is 3.73 µM. The figure for `Cc1c2c(=O)n(-c3nc4ccccc4s3)nc-2cc(O)n1C1CC1` is 3.75 µM; for `Cc1c2c(=O)n(-c3nc4ccccc4s3)nc-2cc(O)n1Cc1ccccc1` it is 3.94 µM; for `Cc1c2c(=O)n(-c3nc4ccccc4s3)nc-2cc(O)n1Cc1cccnc1` it is 3.64 µM. For `COc1ccc(Cn2c(O)cc3nn(-c4nc5ccccc5s4)c(=O)c-3c2C)cc1`, the concentration for half-maximal inhibition (IC50) is 3.57 µM. On to `Cc1c2c(=O)n(-c3nc4ccccc4s3)nc-2cc(O)n1Cc1ccncc1`, for which the IC50 was 3.94 µM.

Turning to `COc1ccc(CCn2c(O)cc3nn(-c4nc5ccccc5s4)c(=O)c-3c2C)cc1`, the half-inhibitory concentration (IC50) was 3.49 µM. `Cc1c2c(=O)n(-c3nc4ccccc4s3)nc-2cc(O)n1CCc1ccc(O)cc1`: the IC50 was 3.36 µM.

`Cc1c2c(=O)n(-c3nc4ccccc4s3)nc-2cc(O)n1Cc1ccc(F)cc1`: the half-maximal inhibitory concentration (IC50) is 3.42 µM. Take `Cc1c2c(=O)n(-c3nc4ccccc4s3)nc-2cc(O)n1CCc1cccs1`: the concentration for half-maximal inhibition (IC50) is 3.7 µM. Regarding `Cc1c2c(=O)n(-c3nc4ccccc4s3)nc-2cc(O)n1Cc1cccs1`, the 50% inhibitory concentration (IC50) is 3.5 µM. The figure for `Cc1c2c(=O)n(-c3nc4ccccc4s3)nc-2cc(O)n1Cc1ccccc1Cl` is 3.4 µM; for `Cc1c2c(=O)n(-c3nc4ccccc4s3)nc-2cc(O)n1CCC(C)C` it is 3.25 µM.
